In the NIST ThermoML archive (doi:10.1016/j.jct.2013.08.013):

Tests used:
[1] = 101 kPa, Liquid; for speed of sound: Frequency=2 MHz, Linear variable-path acoustic interferometer; for mass density: Vibrating tube method
[2] = xn = mol fraction of the nth substance listed; conditions: 101 kPa, Liquid; for speed of sound: Frequency=2 MHz, Linear variable-path acoustic interferometer; for mass density: Vibrating tube method

Cc1ccccc1Cl [2-chlorotoluene]
[1]
Conditions	mass density [kg/m3]	speed of sound [m/s]
298.15 K	1077.38	1299.8
303.15 K	1072.8	1283.6
308.15 K	1068.21	1265.6

Cc1ccccc1Cl [2-chlorotoluene] + CCCCCCCO
[2]
Conditions	mass density, 298.15 K [kg/m3]	mass density, 303.15 K [kg/m3]	mass density, 308.15 K [kg/m3]	speed of sound, 298.15 K [m/s]	speed of sound, 303.15 K [m/s]	speed of sound, 308.15 K [m/s]
x1 = 0.0984	840.51	836.79	833.05	1324.4	1311	1289.7
x1 = 0.1921	861.75	857.88	853.98	1320.1	1306	1284
x1 = 0.2969	886.24	882.16	878.15	1313.6	1298.6	1276.2
x1 = 0.3983	910.69	906.43	902.26	1306.5	1290.7	1268.5
x1 = 0.4949	934.8	930.38	926.11	1299.3	1283.1	1260.9
x1 = 0.5961	960.97	956.41	952.02	1293.5	1276.2	1254.8
x1 = 0.7028	989.68	985.06	980.6	1289.2	1271.5	1250.4
x1 = 0.7968	1016.16	1011.5	1006.94	1287.7	1270.3	1249.7
x1 = 0.8993	1046.27	1041.59	1036.99	1289.1	1273.5	1254.3
x1 = 1	1077.38	1072.8	1068.21	1299.8	1283.6	1265.6

Cc1ccccc1Cl [2-chlorotoluene] + CCCCCCO
[2]
Conditions	mass density, 298.15 K [kg/m3]	mass density, 303.15 K [kg/m3]	mass density, 308.15 K [kg/m3]	speed of sound, 298.15 K [m/s]	speed of sound, 303.15 K [m/s]	speed of sound, 308.15 K [m/s]
x1 = 0.0974	839.69	835.89	832.09	1304.1	1287	1268.7
x1 = 0.1968	864.67	860.71	856.77	1302	1284.3	1266
x1 = 0.3046	892	887.87	883.78	1298.3	1280.2	1260.7
x1 = 0.3967	915.57	911.34	907.1	1294.3	1275.7	1255.7
x1 = 0.489	939.38	934.99	930.68	1290.1	1271.1	1250.9
x1 = 0.5955	967.24	962.7	958.3	1286.1	1266.2	1246.3
x1 = 0.6902	992.34	987.72	983.26	1283.6	1264.1	1244.4
x1 = 0.8086	1024.27	1019.61	1015.04	1284.7	1265.4	1246.2
x1 = 0.8949	1047.98	1043.25	1038.71	1289.1	1270.5	1250
x1 = 1	1077.38	1072.8	1068.21	1299.8	1283.6	1265.6

Cc1ccccc1Cl [2-chlorotoluene] + CCCCCO
[2]
Conditions	mass density, 298.15 K [kg/m3]	mass density, 303.15 K [kg/m3]	mass density, 308.15 K [kg/m3]	speed of sound, 298.15 K [m/s]	speed of sound, 303.15 K [m/s]	speed of sound, 308.15 K [m/s]
x1 = 0.0964	838.77	834.85	830.94	1280.2	1263	1250
x1 = 0.189	865.02	860.96	856.9	1282.2	1264	1250.2
x1 = 0.294	894.17	889.95	885.73	1281.9	1262.5	1247.7
x1 = 0.388	919.71	915.37	911.06	1280.9	1260.7	1244.5
x1 = 0.4962	948.58	944.07	939.74	1279	1258.1	1240.9
x1 = 0.5892	972.97	968.37	963.98	1277.5	1255.8	1238.3
x1 = 0.697	1000.83	996.18	991.75	1278	1256.1	1238
x1 = 0.8057	1028.54	1023.88	1019.37	1281	1260.1	1242.2
x1 = 0.8949	1051.02	1046.43	1041.83	1287	1267.2	1250
x1 = 1	1077.38	1072.8	1068.21	1299.8	1283.6	1265.6

Cc1ccccc1Cl [2-chlorotoluene] + CCCCO
[2]
Conditions	mass density, 298.15 K [kg/m3]	mass density, 303.15 K [kg/m3]	mass density, 308.15 K [kg/m3]	speed of sound, 298.15 K [m/s]	speed of sound, 303.15 K [m/s]	speed of sound, 308.15 K [m/s]
x1 = 0.0914	837.37	833.28	829.2	1247.4	1231.4	1213.3
x1 = 0.2026	873.25	868.95	864.69	1255.5	1238.2	1219.2
x1 = 0.2888	899.51	895.11	890.72	1260.1	1241.1	1222.2
x1 = 0.3958	930.38	925.85	921.35	1264.2	1244.1	1224.3
x1 = 0.4973	958.03	953.44	948.87	1267.1	1246	1226
x1 = 0.6021	985.11	980.47	975.89	1269	1249.2	1227.4
x1 = 0.6969	1008.43	1003.83	999.22	1271.4	1250.4	1231
x1 = 0.7892	1030.29	1025.68	1021.07	1276.7	1255.4	1236.4
x1 = 0.894	1054.17	1049.55	1044.94	1285.6	1266.4	1247
x1 = 1	1077.38	1072.8	1068.21	1299.8	1283.6	1265.6

Cc1ccccc1Cl [2-chlorotoluene] + CCCO
[2]
Conditions	mass density, 298.15 K [kg/m3]	mass density, 303.15 K [kg/m3]	mass density, 308.15 K [kg/m3]	speed of sound, 298.15 K [m/s]	speed of sound, 303.15 K [m/s]	speed of sound, 308.15 K [m/s]
x1 = 0.089	837.16	832.98	828.75	1219	1200.1	1181.4
x1 = 0.1947	877.01	872.53	868.14	1232	1212.4	1192.8
x1 = 0.2938	910.41	905.71	901.22	1242.5	1221.5	1201.9
x1 = 0.3841	937.91	933.15	928.51	1249.2	1228.7	1207.8
x1 = 0.4898	967.13	962.37	957.66	1257	1234.8	1213.9
x1 = 0.5918	992.79	988	983.25	1262.5	1240.5	1219.2
x1 = 0.6979	1017.16	1012.42	1007.7	1269	1246.3	1225.2
x1 = 0.7955	1037.96	1033.25	1028.56	1275.3	1253.4	1234
x1 = 0.8932	1057.42	1052.78	1048.12	1284.4	1264.7	1245.4
x1 = 1	1077.38	1072.8	1068.21	1299.8	1283.6	1265.6

CCCCO [butan-1-ol]
[1]
Conditions	mass density [kg/m3]	speed of sound [m/s]
298.15 K	805.95	1238.9
303.15 K	802.11	1223.4
308.15 K	798.24	1206.8

CCCCO [butan-1-ol] + Cc1ccccc1Cl
[2], x2 = 0
Conditions	mass density [kg/m3]	speed of sound [m/s]
298.15 K	805.95	1238.9
303.15 K	802.11	1223.4
308.15 K	798.24	1206.8

CCCCCCCO [heptan-1-ol]
[1]
Conditions	mass density [kg/m3]	speed of sound [m/s]
298.15 K	818.79	1326.5
303.15 K	815.21	1313.6
308.15 K	811.62	1293.1

CCCCCCCO [heptan-1-ol] + Cc1ccccc1Cl
[2], x2 = 0
Conditions	mass density [kg/m3]	speed of sound [m/s]
298.15 K	818.79	1326.5
303.15 K	815.21	1313.6
308.15 K	811.62	1293.1

CCCCCCO [hexan-1-ol]
[1]
Conditions	mass density [kg/m3]	speed of sound [m/s]
298.15 K	815.31	1303.2
303.15 K	811.7	1286.4
308.15 K	808.06	1269.7

CCCCCCO [hexan-1-ol] + Cc1ccccc1Cl
[2], x2 = 0
Conditions	mass density [kg/m3]	speed of sound [m/s]
298.15 K	815.31	1303.2
303.15 K	811.7	1286.4
308.15 K	808.06	1269.7

CCCCCO [pentan-1-ol]
[1]
Conditions	mass density [kg/m3]	speed of sound [m/s]
298.15 K	810.82	1276.2
303.15 K	807.1	1259.5
308.15 K	803.38	1248.1

CCCCCO [pentan-1-ol] + Cc1ccccc1Cl
[2], x2 = 0
Conditions	mass density [kg/m3]	speed of sound [m/s]
298.15 K	810.82	1276.2
303.15 K	807.1	1259.5
308.15 K	803.38	1248.1

CCCO [propan-1-ol]
[1]
Conditions	mass density [kg/m3]	speed of sound [m/s]
298.15 K	799.65	1206.5
303.15 K	795.65	1188.6
308.15 K	791.65	1171.8

CCCO [propan-1-ol] + Cc1ccccc1Cl
[2], x2 = 0
Conditions	mass density [kg/m3]	speed of sound [m/s]
298.15 K	799.65	1206.5
303.15 K	795.65	1188.6
308.15 K	791.65	1171.8
